This note sets out measurements from patent US10757937B2, “Sulfonamides that activate ABA receptors” (The Regents of the University of California, priority 2014, dated 2020).

Holding throughout (assay): receptor-mediated PP2C (HAB1) inhibition in vitro assay
Common to all, as to format: biochemical
Conditions in all cases: compound at 25 μM; control without agonist = 100%

In assay [1] the target is T1, PYL4 (Arabidopsis thaliana, UniProt O80920).
T1 construct: 6X-His; made in house; host or cells: E. coli BL21[DE3]pLysS
T1 sequence (O80920 1-207): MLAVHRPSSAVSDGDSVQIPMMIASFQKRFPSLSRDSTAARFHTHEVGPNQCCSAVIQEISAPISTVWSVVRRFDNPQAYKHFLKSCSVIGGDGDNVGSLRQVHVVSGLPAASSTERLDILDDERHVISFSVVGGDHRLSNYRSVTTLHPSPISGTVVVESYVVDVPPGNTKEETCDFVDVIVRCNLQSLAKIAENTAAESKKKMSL
T1 sequence (Q9CAJ0 23-511 partner): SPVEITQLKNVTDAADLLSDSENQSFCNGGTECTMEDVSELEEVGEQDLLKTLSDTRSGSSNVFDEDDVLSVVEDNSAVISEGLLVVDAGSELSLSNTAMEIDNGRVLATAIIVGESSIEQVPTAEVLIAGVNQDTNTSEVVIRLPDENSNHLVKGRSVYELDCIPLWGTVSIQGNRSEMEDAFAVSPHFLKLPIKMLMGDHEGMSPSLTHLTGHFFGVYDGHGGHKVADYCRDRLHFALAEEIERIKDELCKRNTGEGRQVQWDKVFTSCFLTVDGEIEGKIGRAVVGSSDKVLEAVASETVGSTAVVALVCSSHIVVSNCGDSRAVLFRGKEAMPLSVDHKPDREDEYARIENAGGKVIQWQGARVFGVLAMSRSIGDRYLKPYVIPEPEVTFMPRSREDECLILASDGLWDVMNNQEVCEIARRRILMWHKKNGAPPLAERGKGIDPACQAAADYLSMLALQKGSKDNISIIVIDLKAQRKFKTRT
As to the method:
(§1) A family of 62 structurally related N-acyl sulfonamides (Tables I-V) were tested for ABA agonist activity using multiple receptor-mediated PP2C inhibition in vitro assays (Park et al., 2009). […] The constructs utilized for protein expression have been previously described (Okamoto et al. 2013). For constructs encoding 6X-His-fusion proteins (all receptors except PYL11), the coding sequences were of the receptors were cloned in the vector pET28, expressed in BL21[DE3]pLysS E. coli host cells at 18° C. overnight, and subsequently purified from sonicated lysates using Ni-NTA agarose (Qiagen, USA), according to the manufacturer's instructions. PYL11 was constructed as a maltose binding protein fusion in the vector pMAL-c, expressed in BL21┌DE3┐pLysS host cells and purified using amylose resin (New England Biolabs) as described by the manufacturer. Recombinant GST-HAB1 was expressed and purified as described previously (Park et al., 2009). PP2C activity assays were conducted using the fluorogenic phosphatase substrate 4-methylumbelliferyl-phosphate. Recombinant receptors and HAB1 were used to examine ligand-induced PP2C inactivation in response to multiple test compounds. Enzyme inhibition assays were conducted using the following assay conditions: 50 nM GST-PP2C, 100 mM Tris-OAc (pH 7.9), 100 mM NaCl, 1 mM MnCl2, 1% β-mercaptoethanol. […] Because of this, the ratio of each receptor used in the PP2C-inhibitions assays was established empirically as the minimum fold-excess of receptor required to elicit maximal PP2C inhibition at a saturating ABA concentration (10 μM).
(§2) Based on this criterion, we used a ratio of 2:1 receptor in the assays described herein.
(§3) Using the above assay conditions, compounds were tested at 25 μM for agonist activity on PYL4, PYL5, PYL8 and PYL9. […] Consequently, a subset of the compounds was tested at multiple concentrations against 11 receptors so that IC50 values and receptor selectivity profiles could be examined. […] Thus, the N-acylsulfonamide agonists disclosed are selective for monomeric receptors.
(§4) Additional compounds were tested for biological activity following the procedures of Example 1 with minor modifications.
(§5) For these in vitro receptor assays, the compounds listed were tested in in vitro PP2C inhibition assays with 50 uM of the test compound except for ABA (10 uM). IC50s were calculated from dose curves, but only for selected compounds.

Assay [2] addresses T2, PYL5 (Arabidopsis thaliana, UniProt Q9FLB1).
T2 construct: 6X-His; made in house; host or cells: E. coli BL21[DE3]pLysS
T2 sequence (Q9FLB1 1-203): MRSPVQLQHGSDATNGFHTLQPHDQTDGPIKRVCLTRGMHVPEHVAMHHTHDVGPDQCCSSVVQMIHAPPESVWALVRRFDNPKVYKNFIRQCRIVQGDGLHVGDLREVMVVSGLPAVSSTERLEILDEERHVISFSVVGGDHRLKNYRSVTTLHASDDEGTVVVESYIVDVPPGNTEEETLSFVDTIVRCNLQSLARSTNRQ
T2 sequence (Q9CAJ0 23-511 partner): T1 sequence (Q9CAJ0 23-511 partner)
As to the method: as §1, §2, §3, §4, §5

Assay [3] deals with T3, PYL8 (Arabidopsis thaliana, UniProt Q9FGM1).
T3 construct: 6X-His; made in house; host or cells: E. coli BL21[DE3]pLysS
T3 sequence (Q9FGM1 1-188): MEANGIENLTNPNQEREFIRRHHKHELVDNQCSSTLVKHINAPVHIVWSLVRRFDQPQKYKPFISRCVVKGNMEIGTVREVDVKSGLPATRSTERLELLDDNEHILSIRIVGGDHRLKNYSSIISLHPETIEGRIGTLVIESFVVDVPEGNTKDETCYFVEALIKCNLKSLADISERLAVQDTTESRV
T3 sequence (Q9CAJ0 23-511 partner): T1 sequence (Q9CAJ0 23-511 partner)
As for the experimental part:
as §1, §2, §3, §4, §5

The target of assay [4] is T4, PYL9 (Arabidopsis thaliana, UniProt Q84MC7).
T4 construct: 6X-His; made in house; host or cells: E. coli BL21[DE3]pLysS
T4 sequence (Q84MC7 1-187): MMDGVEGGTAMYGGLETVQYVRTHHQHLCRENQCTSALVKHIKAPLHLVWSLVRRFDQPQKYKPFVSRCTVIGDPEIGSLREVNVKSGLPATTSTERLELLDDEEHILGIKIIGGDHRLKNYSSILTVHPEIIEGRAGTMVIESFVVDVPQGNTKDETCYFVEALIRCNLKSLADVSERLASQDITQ
T4 sequence (Q9CAJ0 23-511 partner): T1 sequence (Q9CAJ0 23-511 partner)
As to the method:
as §1, §2, §3, §4, §5

Each structure is given as a SMILES string.

Compound `CC(C)(C(=O)NS(=O)(=O)Cc1ccc(C#N)cc1)c1ccc(C(F)(F)F)cc1` [Compound 11] showed a PP2C Activity (25 μm) PYL4 in assay [1] of 93%. Moreover, the PP2C Activity (25 μm) PYL5 in assay [2] was 44%. The PP2C Activity (25 μm) PYL8 in assay [3] was found to be 62%. In assay [4], this compound yielded a PP2C Activity (25 μm) PYL9 of 58%.

The compound `CC(C)COc1ccc(C(C)(C)C(=O)NS(=O)(=O)Cc2ccc(C#N)cc2)cc1` [Compound 14] came in with a PP2C Activity (25 μm) PYL4 in assay [1] of 97%. In addition, in assay [2], the PP2C Activity (25 μm) PYL5 came to 103%. In assay [3], this compound gave a PP2C Activity (25 μm) PYL8 of 108%. In assay [4], this compound registered a PP2C Activity (25 μm) PYL9 of 108%.

For `CCc1ccc(C(C)(C)C(=O)NS(=O)(=O)Cc2ccc(C#N)cc2)cc1` [Compound 20], the PP2C Activity (25 μm) PYL4 in assay [1] amounted to 95%. Moreover, the PP2C Activity (25 μm) PYL5 in assay [2] was 88%. This compound displayed a PP2C Activity (25 μm) PYL8 in assay [3] of 104%. Besides, the PP2C Activity (25 μm) PYL9 in assay [4] was found to be 98%.

As to `COc1ccc(C(C)(C)C(=O)NS(=O)(=O)Cc2ccc(C#N)cc2)cc1OC` [Compound 21], the PP2C Activity (25 μm) PYL4 in assay [1] stood at 89%. In assay [2], this compound had a PP2C Activity (25 μm) PYL5 of 89%. In addition, the PP2C Activity (25 μm) PYL8 in assay [3] came to 98%. The same compound had a PP2C Activity (25 μm) PYL9 in assay [4] of 102%.

As for `N#Cc1ccc(CS(=O)(=O)NC(=O)C2(c3ccc(Br)cc3)CCC2)cc1` [Compound 31], in assay [1], the PP2C Activity (25 μm) PYL4 is 97%. Further, in assay [2], the PP2C Activity (25 μm) PYL5 is 77%. The same compound gave a PP2C Activity (25 μm) PYL8 in assay [3] of 80%. The PP2C Activity (25 μm) PYL9 in assay [4] worked out at 74%.

In the case of `Cc1cc(C)cc(C2(C(=O)NS(=O)(=O)Cc3ccc(C#N)cc3)CC2)c1` [Compound 36], the PP2C Activity (25 μm) PYL4 in assay [1] stood at 91%. This compound yielded a PP2C Activity (25 μm) PYL5 in assay [2] of 34%. In assay [3], this compound showed a PP2C Activity (25 μm) PYL8 of 98%. This compound came in with a PP2C Activity (25 μm) PYL9 in assay [4] of 94%.

`CC(C)(C)c1ccc(C2(C(=O)NS(=O)(=O)Cc3ccc(C#N)cc3)CC2)cc1` [Compound 40] had a PP2C Activity (25 μm) PYL4 in assay [1] of 92%. The PP2C Activity (25 μm) PYL5 in assay [2] turned out to be 101%. The PP2C Activity (25 μm) PYL8 in assay [3] amounted to 106%. In assay [4], this compound showed a PP2C Activity (25 μm) PYL9 of 103%.

The compound `N#Cc1ccc(CS(=O)(=O)NC(=O)C2(c3ccc(C(F)(F)F)cc3)CC2)cc1` [Compound 45] came in with a PP2C Activity (25 μm) PYL4 in assay [1] of 93%. The compound also registered a PP2C Activity (25 μm) PYL5 in assay [2] of 30%. In addition, the PP2C Activity (25 μm) PYL8 in assay [3] was 74%. The PP2C Activity (25 μm) PYL9 in assay [4] came out at 53%.

In the case of `N#Cc1ccc(CS(=O)(=O)NC(=O)C2(c3ccccc3F)CC2)cc1` [Compound 47], the PP2C Activity (25 μm) PYL4 in assay [1] was determined as 95%. This compound also gave a PP2C Activity (25 μm) PYL5 in assay [2] of 28%. Besides, in assay [3], the PP2C Activity (25 μm) PYL8 amounted to 86%. Further, the PP2C Activity (25 μm) PYL9 in assay [4] stood at 75%.

On to `CCOc1ccc(C2(C(=O)NS(=O)(=O)Cc3ccc(C#N)cc3)CC2)cc1` [Compound 52], for which, in assay [1], the PP2C Activity (25 μm) PYL4 was found to be 94%. In assay [2], this compound returned a PP2C Activity (25 μm) PYL5 of 99%. In assay [3], this compound returned a PP2C Activity (25 μm) PYL8 of 91%. In assay [4], this compound had a PP2C Activity (25 μm) PYL9 of 98%.

In assay [1], `CC(C)(C(=O)NS(=O)(=O)Cc1ccc2cccnc2c1)c1ccccc1` [Compound 55] showed a PP2C Activity (25 μm) PYL4 of 96%. This compound yielded a PP2C Activity (25 μm) PYL5 in assay [2] of 95%. Moreover, the PP2C Activity (25 μm) PYL8 in assay [3] was 72%. In addition, the PP2C Activity (25 μm) PYL9 in assay [4] came out at 49%.

With `CC(=O)N1CCC(C(=O)NS(=O)(=O)Cc2ccc(C#N)cc2)(c2ccccc2)CC1` [Compound 56], the PP2C Activity (25 μm) PYL4 in assay [1] stood at 94%. In assay [2], this compound displayed a PP2C Activity (25 μm) PYL5 of 105%. The PP2C Activity (25 μm) PYL8 in assay [3] amounted to 106%. This compound also gave a PP2C Activity (25 μm) PYL9 in assay [4] of 108%.

As for `N#Cc1ccc(CS(=O)(=O)NC(=O)C2(c3cccc(F)c3)CCOCC2)cc1` [Compound 57], the PP2C Activity (25 μm) PYL4 in assay [1] is 91%. This compound registered a PP2C Activity (25 μm) PYL5 in assay [2] of 100%. The compound further gave a PP2C Activity (25 μm) PYL8 in assay [3] of 56%. The compound further displayed a PP2C Activity (25 μm) PYL9 in assay [4] of 39%.

Regarding `N#Cc1ccc(CS(=O)(=O)NC(=O)C2(c3cccc(Cl)c3)CCOCC2)cc1` [Compound 58], the PP2C Activity (25 μm) PYL4 in assay [1] stood at 96%. Moreover, the PP2C Activity (25 μm) PYL5 in assay [2] turned out to be 83%. The compound also displayed a PP2C Activity (25 μm) PYL8 in assay [3] of 84%. The PP2C Activity (25 μm) PYL9 in assay [4] was 83%.
